Values quoted from earlier work as cited in patent publication US11504416B2, “Formulation with cannabinoids” (PAW POWER, INC., priority 2018, dated 2022).

Columns and labels:
[1] = intra-articular injection, high molecular weight (>5×10^6 Da)

gastrointestinal absorption (administered orally)	time to peak levels in the bloodstream (after oral ingestion)	tissue distribution of ingested glucosamine (oral ingestion)	Compound	function in subjects with osteoarthritis or rheumatoid arthritis [1]
			hyaluronic acid	improves function
readily absorbed	≤ 8 h	localizes to cartilage and joint tissues	N[C@H]1C(O)O[C@H](CO)[C@@H](O)[C@@H]1O (stereo partly shown) [Glucosamine]	
